Measurements reported in patent publication US11179412B2, “Methods of treating conditions involving elevated inflammatory response” (University of Pittsburgh—Of the Commonwealth System of …, priority 2017, dated 2021).
Counter-ions that a name gives are not always drawn.

What follows are molecules tested on STING activation (IFNβ release) in iBMDMs (assay: IFNβ release ELISA after STING ligand (or LPS) stimulation, iBMDMs). Settings: iBMDMs; 3′3′-cGAMP 10 μg/ml, 16 hours; compound 10 μM.
Format: cell-based, mouse
In short: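 IFNβ released into the medium was quantified by ELISA (mouse or human kit) after iBMDM stimulation with the canonical STING agonist 3′3′-cGAMP or with LPS.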

Molecule	fold increase in IFN-β release [fold]	3′3′-cGAMP-induced IFNβ release
Cc1cc(C(N)=O)ccc1-n1c(CCC(=O)O)ccc1-c1ccc(-n2ccnc2)cc1 [N6022]	0.75	
COc1ccc2c(c1)C(=O)N(CCc1ccc(S(=O)(=O)NC(=O)NC3CCCCC3)cc1)C(=O)C2(C)C [Gliquidone]	1.20	
COC(=O)C1=C(C#N)NC(C)=C(C(=O)OC(C)C)C1c1cccc([N+](=O)[O-])c1 (centres unmarked) [Nilvadipine]	1.79	
O=c1ncn2nc(Sc3ccc(F)cc3F)ccc2c1-c1c(Cl)cccc1Cl [VX-745]	6.18	
O=C(Nc1ccccc1)c1cc([N+](=O)[O-])ccc1Cl [GW9662]	2.50	
COc1cc(Br)c(Nc2nc(-c3c(C)nc4ncccn34)cs2)c(Br)c1 [PTC-209]	2.11	
FC(F)(F)c1ccc(/C=C/c2nc(COc3ccc(CCCCn4ccnn4)cc3)co2)cc1 [Mubritinib (TAK 165), Mubritinib]	0.56	
O=S(=O)(c1ccccc1)c1cnc2c(N3CCNCC3)cccc2c1 [SB742457]	0.65	
O=[N+]([O-])c1ccc2c(c1)S(=O)(=O)C=C2 [Stattic]	0.10	
C[C@@H](Oc1cc(-n2cnc3ccc(CN4CCN(C)CC4)cc32)sc1C(N)=O)c1ccccc1C(F)(F)F [GSK461364]	0.21	
CC(C)c1noc(N2CCC(COc3ccc(-c4ccc(S(C)(=O)=O)cc4)nc3)CC2)n1 [GSK1292263]	2.58	
Cc1cc(NC(=O)Nc2ccc(N(C)C)cc2)c2cc(F)cc(F)c2n1 [SB408124]	1.90	
Cc1cnc(NC(=O)Nc2cc(Br)c(C)cc2OC[C@@H]2CNCCO2)cn1 [LY2603618]	1.08	
NCC(=O)Nc1ccc(-n2nc(C(F)(F)F)cc2-c2ccc3c(ccc4ccccc43)c2)cc1 [OSU-03012 (AR-12)]	0.31	
C[C@]12C=CC(=O)N[C@@H]1CC[C@@H]1[C@@H]2CC[C@]2(C)[C@@H](C(=O)Nc3cc(C(F)(F)F)ccc3C(F)(F)F)CC[C@@H]12 [Dutasteride]	0.51	
CC(/C=C/C(=O)NO)=C\[C@@H](C)C(=O)c1ccc(N(C)C)cc1 [Trichostatin A (TSA), Trichostatin A]	0.39	
O=C(/C=C/c1ccc2ccccc2n1)c1ccncc1 [PFK15]	0.68	
O=C(NCc1ccccc1)c1csc(Nc2ccncn2)n1 [Thiazovivin]	8.11	promoted
COc1ccc2nc([S@@+]([O-])Cc3ncc(C)c(OC)c3C)[nH]c2c1 [Esomeprazole Sodium]	0.95	
Nc1nc(OCc2cc(Br)cs2)c2[nH]cnc2n1 [Lomeguatrib]	1.27	
O=C(NCCN1CCOCC1)c1ccc(Cl)cc1 [Moclobemide (Ro 111163), Moclobemide]	1.88	
CNC(=O)c1ccc2cc([C@@]3(O)CCn4cncc43)ccc2c1 [TAK-700 (Orteronel), Orteronel]	2.72	

Molecule	fold increase in IFN-β release [fold]	3′3′-cGAMP-induced IFNβ release
Cc1c(NC(=O)c2ccc(C(C)(C)C)cc2)cccc1-c1cn(C)c(=O)c(Nc2ccc(C(=O)N3CCOCC3)cc2)n1 [CG11746]	0.16	
CC(=O)c1c(C)c2cnc(Nc3ccc(N4CCNCC4)cn3)nc2n(C2CCCC2)c1=O [Palbociclib (PD-0332991) HCl, Palbociclib]	0.94	
CCN(CC)CCCC(C)Nc1nc(C)cc(Nc2ccc3nc(C)cc(N)c3c2)n1 (centres unmarked) [NSC 23766]	1.30	
O=C(NOC[C@H](O)CO)c1ccc(F)c(F)c1Nc1ccc(I)cc1F [PD0325901]	0.39	
COc1ccc(CNCc2cccc3ccccc23)cc1.Cl [ML133 HCl]	0.59	
C[C@]1(c2nc3c(C(N)=O)cccc3[nH]2)CCCN1 [Veliparib (ABT-888), Veliparib]	0.66	
Nc1cccc2c1C(=O)N(C1CCC(=O)NC1=O)C2=O (centres unmarked) [Pomalidomide]	2.12	
CNC(=O)[C@H](Cc1c[nH]c2ccccc12)NC(=O)[C@@H](CC(=O)NO)CC(C)C [Ilomastat (GM6001, Galardin), Ilomastat]	1.81	
Cc1cnc(-c2ccccc2C(C)C)nc1NCc1ccc(-n2ccnn2)cc1 [ML323]	0.43	
CC(C)CCNC(=O)[C@H](CC(C)C)NC(=O)[C@H]1O[C@@H]1C(=O)O [Loxistatin Acid (E-64C), Loxistatin Acid]	0.70	
CCN(CC)C(=O)c1ccc(C2=CC3(CCNCC3)Oc3cccc(O)c32)cc1 [ADL5859 HCl]	0.95	
N[C@@H]1C[C@H]1c1ccccc1 (racemic) [Tranylcypromine (2-PCPA) HCl, Tranylcypromine]	1.17	
COc1c(C)c(C(=O)c2ccc(N)c(C(=O)[O-])c2)n2ccccc12.[Na+] [SSR128129E]	0.98	
Cc1c(C(=O)Nc2ccc(N3C[C@@H](C)O[C@@H](C)C3)nc2)cccc1-c1ccc(OC(F)(F)F)cc1 [LDE225 (NVP-LDE225, Erismodegib), Erismodegib]	1.31	
CC[C@@H]1/C=C/C=C/C[C@H](C)[C@H](O)[C@](C)(O)C(=O)[C@H](C)[C@@H](O)[C@H](C)C(=O)[C@H](C)[C@@H](O)[C@H](C)/C=C/C(=O)O[C@H]2[C@@H](C)[C@@H](CC1)O[C@@]1(CC[C@@H](C)[C@@H](C[C@H](C)O)O1)[C@@H]2C [Oligomycin A]	2.49	
Cc1[nH]c2ccccc2c1CCNCc1ccc(/C=C/C(=O)NO)cc1 [Panobinostat (LBH589), Panobinostat]	0.61	
O=C1NC(=O)C(c2ccccc2[N+](=O)[O-])=C1Nc1ccc(O)c(Cl)c1 [SB415286]	1.15	
COc1ccc2cccc(CCNC(C)=O)c2c1 [Agomelatine]	0.97	
c1ccc(CC2=NCCN2)cc1 [Tolazoline HCl]	1.46	
CCNC(=O)c1noc(-c2cc(C(C)C)c(O)cc2O)c1-c1ccc(CN2CCOCC2)cc1 [AUY922 (NVP-AUY922)]	0.93	
NC(=O)N1c2ccccc2CC(=O)c2ccccc21 [Oxcarbazepine]	5.22	
CCCCCCCCCCCC1=C(O)C(=O)C=C(O)C1=O [Embelin]	0.17	

Molecule	fold increase in IFN-β release [fold]	3′3′-cGAMP-induced IFNβ release
COc1c(O)cc2c(c1O)[C@@H]1O[C@H](CO)[C@@H](O)[C@H](O)[C@H]1OC2=O [Bergenin]	0.57	
CCCc1ccc(OCC(=O)N(Cc2nc(-c3cccnc3)no2)C(C)C)cc1 [PI-1840]	0.60	
O=C(c1ccc(Nc2nccc(-c3cc4ccccc4s3)n2)cc1)N1CCC(N2CCCC2)CC1 [IKK-16 (IKK Inhibitor VII)]	1.16	
COc1cc2c(cc1Cc1cccc(Cl)c1F)c(=O)c(C(=O)O)cn2[C@H](CO)C(C)C [Elvitegravir (GS-9137, JTK-303), Elvitegravir]	2.56	
COC1CCN(C(=O)c2cc(Cc3n[nH]c(=O)c4ccccc34)ccc2F)CC1 [AZD2461]	2.12	
CC(C)C[C@H](NC(=O)[C@@H](NC(=O)c1cccc(-c2ccccc2)n1)[C@@H](C)O)B(O)O [CEP-18770 (Delanzomib), Delanzomib]	0.82	
CC(C)CCN1c2nc(Nc3cc(F)c(O)c(F)c3)ncc2N(C)C(=O)C1C (centres unmarked) [BI-D1870]	0.79	
CC[C@H](NC(=O)[C@H](C)NC)C(=O)N1C[C@@H](O)C[C@H]1Cc1c(-c2[nH]c3cc(F)ccc3c2C[C@@H]2C[C@H](O)CN2C(=O)[C@H](CC)NC(=O)[C@H](C)NC)[nH]c2cc(F)ccc12 [Birinapant]	1.15	
CC(C)(C)NC(=O)[C@H]1CC[C@H]2[C@@H]3CC[C@H]4NC(=O)C=C[C@]4(C)[C@H]3CC[C@]12C [Finasteride]	0.85	
CC(C)NCCCn1c(Sc2cc3c(cc2I)OCO3)nc2c(N)ncnc21 [PU-H71]	1.13	
CN(C)C(=O)[C@H](O)[C@H](Cc1ccccc1)NC(=O)c1cc2cc(Cl)ccc2[nH]1 [CP-91149]	0.14	
CCCC(C)NC(=O)c1ccc(Cl)c(Cl)c1 (centres unmarked) [NSC 405020]	1.24	
Br.COc1cc(Br)c(Nc2nc(-c3c(C)nc4ncccn34)cs2)c(Br)c1 [PTC-209 HBr]	0.27	
C=CC(=O)Nc1cccc(Nc2nc(Nc3ccc(Oc4ccnc(C(=O)NC)c4)cc3)ncc2F)c1 [CNX-774]	0.73	
O=S(=O)(CC1CS1)c1ccc(Oc2ccccc2)cc1 (centres unmarked) [SB-3CT]	0.49	
CC(C)C[C@H](NC(=O)[C@H](Cc1ccccc1)NC(=O)c1cnccn1)B(O)O [Bortezomib (PS-341), Bortezomib]	0.37	
O=C(Nc1cccc(C(F)(F)F)c1)Nc1cc(S(=O)(=O)NC2CC2)ccc1-c1ccsc1 [AGI-6780]	2.14	
O=C(Nc1ccncc1)c1cc([N+](=O)[O-])ccc1Cl [T0070907]	2.09	
Maraviroc	2.50	
CNc1nc(Nc2cnn([C@H]3CCN(C4COC4)C[C@@H]3F)c2Cl)ncc1C(F)(F)F [GNE-9605]	1.10	
C[C@]12CC[C@@H]3c4ccc(O)cc4C[C@@H](CCCCCCCCC[S+]([O-])CCCC(F)(F)C(F)(F)F)[C@H]3[C@@H]1CC[C@@H]2O (some centres unmarked) [Fulvestrant]	0.52	
PF-04620110	3.43	

Same assay, conditions: iBMDMs; 3′3′-cGAMP 10 μg/ml, 16 hours; compound 10 μM; HCl

Molecule	fold increase in IFN-β release [fold]
O=C(O)/C=C/c1ccc(Cn2ccnc2)cc1 [Ozagrel HCl]	2.13
